What was measured:
[1] = cited from earlier work
[2] = Thermodynamic stability test (endothermic peak in DSC scan); format: physicochemical
Source text: The mixture of Comparative Example 1, solid dispersion of Example 1 and crystalline taclolimus were each subjected to a thermodynamic stability test by examining the change in the endothermic peak in its DSC scan. The temperatures representing respective endothermic peaks are represented in Table 17, and the overall DSC results are shown in FIG. 1.

C=CC[C@@H]1/C=C(\C)C[C@H](C)C[C@H](OC)[C@H]2O[C@@](O)(C(=O)C(=O)N3CCCCC3C(=O)O[C@H](/C(C)=C/C3CC[C@@H](O)[C@H](OC)C3)[C@H](C)[C@@H](O)CC1=O)[C@H](C)C[C@@H]2OC (stereo partly drawn) [Taclolimus, (—)-(1R,9S,13R,14S,17R,18E,21S,23S,24R,25S,27R)-17-allyl-1,14-dihydroxy-12-[(E)-2-[(1R,3R,4R)-4-hydroxy-3-methoxycyclohexyl]-1-methylvinyl]-23,25-dimethoxy-13,19,21,27-tetramethyl-11,28-dioxa-4-azatricyclo[22.3.1.0^4.9]octacos-18-ene-2,3,10,16-tetrone hydrate]
Solubility in organic solvents ([1]; organic solvents such as anhydrous ethanol): very soluble
Solubility in water ([1]; water): insoluble in water
Endothermic peak temperature [2]: 127.0 °C
